Measurements taken from patent US9969755B2, “Photodynamic therapy photosensitizers” (The Royal Institution for the Advancement of …, priority 2016, dated 2018).
Values after ≈ are worked out from the molar mass of the structure shown. Values joined by “and” are separate entries in the source; they are usually repeats but may differ in a detail not shown here. Identical values can stand only once.

Key:
[1] = ^1O2 quantum yield and lifetime, ^1O2 phosphorescence at 1270 nm (direct method); type: physicochemical; details: for ΦΔ^D (singlet oxygen quantum yield, direct): ^1O2 phosphorescence at 1270 nm, air equilibrated acetonitrile
Protocol: The generation of singlet oxygen and its lifetime were determined from ^1O2 phosphorescence decay curves recorded at 1270 nm upon excitation with a 532 nm Nd:YAG laser. A total of 3 laser shots were applied to acquire a trace. […] Quantum yield of ^1O2 production (φΔ^D) were calculated comparing the intensity of ^1O2 phosphorescence at 1270 nm for the corresponding photosensitizer with that recorded for Rose Bengal (φΔ=0.54).^81

[2] = ^1O2 quantum yield, photooxidation of DMA (indirect method); type: physicochemical; details: consumption of dimethylanthracene, Rose Bengal standard, air equilibrated acetonitrile
Protocol: Solutions of 9,10-dimethylanthracene (DMA, 50 μM) and photosensitizers (compound 3-10) in air equilibrated acetonitrile were irradiated in 10 mm path length quartz cell (3 ml) with a Nd:Yag laser exciting at 532 nm. Laser excitation was performed at 10 Hz, providing one laser output for every discharge of the flashlamp. An irradiation time of 1 s is equivalent to 10 laser pulses. The energy of each pulse was 10 mJ. The kinetics of DMA photooxidation were studied by following the decrease of the absorbance at λ=377 nm. The observed rate constant (kobs) was obtained by a linear least-squares fit of the semilogarithmic plot of ln [DMA]0/[DMA] (see FIG. 14). Quantum yields of ^1O2 production (φΔ^I) were calculated comparing the kobs=kq [^1O2] for the corresponding photosensitizer with that for Rose Bengal, which was used as a reference (φΔ=0.54).^1 Measurements of the sample and the reference under the same conditions afforded φΔ^I for compounds (3-10) by direct comparison of the slope in the linear region of the plots.
For the indirect detection of ^1O2, it is possible to determine the kq value considering that the production of ^1O2 is constant compare with the initial concentration of DMA. According to these, a pseudo first-order kinetic for this reaction is proposed (equations 2 to 5): […]
The conversion of DMA followed pseudo-first order kinetics with the different photosensitizers (see FIG. 14). From equation 5, it was possible to determine kobs and ^1O2.

[3] = system: clinical biofilm-producing methicillin-resistant Staphylococcus aureus (MRSA); test: Photodynamic inactivation of MRSA with ciprofloxacin as stressor; type: cell-based
Excerpt: The strain was a clinical biofilm-producing methicillin-resistant Staphylococcus aureus (MRSA). […] Samples “without exposure to light” were kept wrapped with aluminum foil. Samples “with exposure to light” were irradiated with a LED panel having the following characteristics: 1.6 mW/cm^2 power output with a maxima (centered) at 520 nm and a full width at half maximum (FWHM) of 31 nm. The LED panel consisted of 5 lamps and was placed 10 cm from the sample.

[4] = system: E. coli ATCC 25922; test: Photodynamic minimal inhibitory concentration (PD-MIC); type: cell-based; details: Escherichia coli
Protocol: The microorganism used for this study is E. coli ATCC 25922. Stock cultures were preserved at −70° C. using glycerol 10% (v/v) as the cryoprotectant, and the strain was grown in Luria Bertania broth (LB). Bacterial culture was prepared inoculating a single colony from a pure culture. After overnight incubation at 37° C. for 18 h, the culture reached a density of approximately 1×10^9 CFU/mL and it was diluted to 10^6 CFU/mL.
We carried out PDI in vitro studies with E. coli. Cells (10^6 CFU/mL) were incubated with 2-fold diluted solutions of compounds 7 and 9 (activated form of 7) in buffer PBS and LB at a proportion of 70:30% (v/v), to obtain concentrations between 40-0.078 μM. Stock solutions of BODIPY 7 and 9 (400 μM) were prepared in acetonitrile. […] PD-MIC was 40 μM for compounds 7 and 9 in dark conditions. Under light irradiation the PD-MIC was 40 μM and 10 μM for 7 and 9 respectively.

[5] = Autocatalytic activation of compound 7 (monitoring fluorescence); type: physicochemical
Protocol: The increase in the fluorescence emission due to autocatalytic activation of compound 7 was followed by continuous irradiation at 532 nm and 1.6 mW/cm^2 in air equilibrated acetonitrile using a PTI QuantaMaster spectrofluorimeter. The emission at 557 nm was measured as a function of the irradiation time. Samples were prepared as described above (see Autocatalytic Activation of Compound 7 (Monitoring ^1O2 Phosphorescence)).

[6] = Intermolecular quenching of ^1O2 phosphorescence by chromanol rings; type: physicochemical; details: ^1O2 generated upon irradiation of compound 5, air equilibrated acetonitrile
Excerpt: To test whether 7 is equally efficient at deactivating ^1O2 as α-tocopherol, we generated ^1O2 upon irradiation of compound 5 and monitored the ^1O2 phosphorescence lifetime in the presence of increasing amounts of either 7 or PMHC (an α-tocopherol analogue lacking the phytyl tail).

[7] = Autocatalytic activation of compound 7 (monitoring ^1O2 phosphorescence); type: physicochemical
Protocol: ^1O2 phosphorescence (1270 nm) was monitored with a Hamamatsu NIR detector after different irradiation periods with a Nd:YAG laser operating at 10 Hz. The energy of each laser pulse was 10 mJ exciting at 532 nm. Using the same procedure as described above (Determination of ^1O2 Quantum Yield), a total of 3 laser shots were applied to acquire a trace at different time intervals following the continuous irradiation by a second Nd:YAG laser setup. Laser excitation was performed at 10 Hz, providing one laser output for every discharge of the flashlamp. The energy of each laser pulse was 10 mJ. To prepare the samples with PMHC, we first added to the solvent (acetonitrile, air equilibrated) the desired amount of PMHC from a stock solution. Then, compound 7 was dissolved until reaching Abs=0.3 ([7]=5.8 μM). For the samples containing compound 4, we first dissolved 4 in a stock solution of acetonitrile containing 0.12 μM of PMHC and then the desired volume of this solution was added to the solution containing 7 and same concentration of the antioxidant (0.12 μM of PMHC).

CC(=O)OCC1=C2C(C)=C(Br)C(C)=[N+]2[B-](F)(F)n2c(C)c(Br)c(C)c21 [Compound 6, 8-Acetoxymethyl-2,6-dibromo-1,3,5,7-tetramethyl Pyrromethene Fluoroborate]
ΦΔ^D (singlet oxygen quantum yield, direct) [1]: 0.84 ± 0.02
ΦΔ^I (singlet oxygen quantum yield, indirect) [2]: 0.79 ± 0.02

CC1=C(Br)C(C)=[N+]2C1=C(CC1(C)CCc3c(C)c(O)c(C)c(C)c3O1)c1c(C)c(Br)c(C)n1[B-]2(F)F (stereo not drawn) [Compound 7, 8-((6-Hydroxy-2,5,7,8-tetramethylchroman-2-yl)-methyl)-2,6-dibromo-1,3,5,7-tetramethyl]
colony forming units upon prolonged illumination, single agent ([3]; light 0 to 60 minutes, 1.6 mW/cm^2, 520 nm, ciprofloxacin 1 microgram per milliliter only or Br2B-PMHC 10 micromolar only): no observed reduction in colony forming units
colony forming units upon illumination in the presence of ciprofloxacin ([3]; light, 1 microgram per milliliter ciprofloxacin and 5 or 10 micromolar Br2B-PMHC): clear reduction in colony forming units
MIC ([4]; ATCC25922, light or radiation study, under light irradiation): 40 µM (≈ 25 µg/mL)
MIC ([4]; ATCC25922, dark conditions): 40 µM (≈ 25 µg/mL)
fraction of 7 pre-oxidized during sample preparation [5]: less than 5%
Fluorescence intensity enhancements ([5]; 0.12 μM sacrificial PMHC, continuous irradiation at 532 nm): ~30 fold
k, apparent second order rate constant for autocatalytic activation ([5]; fit to equation 9, different conditions): ~133 M⁻¹ s⁻¹
singlet oxygen quenching rate constant kq [6]: 2e+08 M⁻¹ s⁻¹
^1O2 generation ([1]; freshly prepared solutions): no ^1O2 generation
φΔ ([7]; 250 μM PMHC added, before prolonged irradiation): undetectable
^1O2 phosphorescence lifetime ([7]; 250 μM PMHC added, within the instrument response): ~3 μs
increase in φΔ after prolonged irradiation ([7]; 250 μM PMHC, 8 hs, ˜300,000 laser shots, 10 mJ/pulse): ca. 25 fold
fraction of photoexcited 7 undergoing activation through reaction with its own singlet oxygen ([7]; assuming geminate quenching 100% effective, 5-3% chemical): smaller than 2×10^−4
fraction of photoexcited 7 effectively sensitizing singlet oxygen ([7]; assuming keT˜25×kISC and k′eT˜10×kq[O2]): < 4×10^−3
increase in φΔ over irradiation time ([7]; direct 532 nm laser excitation, air equilibrated acetonitrile, no PMHC): ca. 6 fold

CC(=O)OCC1=C2C(C)=C(I)C(C)=[N+]2[B-](F)(F)n2c(C)c(I)c(C)c21 [Compound 5, 8-Acetoxymethyl-2,6-diiodo-1,3,5,7-tetramethyl Pyrromethene Fluoroborate]
ΦΔ^D (singlet oxygen quantum yield, direct) [1]: 0.98 and 0.98 ± 0.03
ΦΔ^I (singlet oxygen quantum yield, indirect) [2]: 0.95 ± 0.03

CC1=C(Br)C(C)=[N+]2C1=C(C)c1c(C)c(Br)c(C)n1[B-]2(F)F [Compound 4, 2,6-dibromo-1,3,5,7,8-pentamethyl-pyrromethene fluoroborate]
ΦΔ^D (singlet oxygen quantum yield, direct) [1]: 0.72 ± 0.02
ΦΔ^I (singlet oxygen quantum yield, indirect) [2]: 0.64 ± 0.03

CC1=C(I)C(C)=[N+]2C1=C(C)c1c(C)c(I)c(C)n1[B-]2(F)F [Compound 3, 2,6-diiodo-1,3,5,7,8-pentamethyl-pyrromethene fluoroborate]
ΦΔ^D (singlet oxygen quantum yield, direct) [1]: 0.81 and 0.81 ± 0.02
photodegradation ([1]; under 532 nm irradiation, presumably via photooxidation): photodegrade at a slightly larger pace than 5
ΦΔ^I (singlet oxygen quantum yield, indirect) [2]: 0.75 ± 0.04
